Results on 37 compounds are retold here after patent US12018033B2, “Inhibitors of protein arginine deiminases” (Forward Therapeutics, Inc., priority 2018, dated 2024).

The target of this test is T1, Recombinant human PAD4 (2-663) (Homo sapiens, UniProt Q9UM07).
T1 construct: Recombinant human PAD4 (2-663) was expressed in E. coli; made in house; host or cells: E. coli
The test is described as follows: PAD4 Inhibition Assay. The settings on record: 60 mins pre-incubation at RT; substrate BAEE with CaCl2; fluorescent signal (λex 405/λem 460). The test is classed as biochemical. The protocol: Protein: Recombinant human PAD4 (2-663) was expressed in E. coli as an N-terminal Strep-tag and C-terminal 6-his tag fusion protein. Protein was purified using Strep-tactin resin followed by size exclusion chromatography. Tags were not removed during purification. Activity of the protein was determined using ammonia quantification assay.
PAD4 enzyme (10 μL) was diluted to concentration of 75 nM in assay buffer A (100 mM HEPES, pH 8, 50 mM NaCl, 2 mM DTT, 0.6 mg/mL BSA and 0.5% DMSO) and added to wells containing 10 μL of various concentrations of test compound, or DMSO vehicle in buffer A with 1.5% final DMSO concentration in a Corning high volume 384 well black plate. Following 60 mins pre-incubation at RT with gentle shaking, the reaction was initiated by the addition of 10 μL of substrate buffer containing 3 mM N-α-benzoyl-L-arginine ethyl ester (BAEE) and 600 μM CaCl2) in assay buffer A. The reaction was stopped after 60 mins with the addition of 15 μL stop/detection buffer containing 7.5 mM phthalaldehyde, 50 mM EDTA and 7.5 mM DTT in assay buffer A. Quenched reactions were incubated at RT for 45 mins before measuring fluorescent signal (λex 405/λem 460) on an Envision plate reader (Perkin Elmer Life Sciences, Waltham, Mass., USA).

T1 sequence (Q9UM07 2-663): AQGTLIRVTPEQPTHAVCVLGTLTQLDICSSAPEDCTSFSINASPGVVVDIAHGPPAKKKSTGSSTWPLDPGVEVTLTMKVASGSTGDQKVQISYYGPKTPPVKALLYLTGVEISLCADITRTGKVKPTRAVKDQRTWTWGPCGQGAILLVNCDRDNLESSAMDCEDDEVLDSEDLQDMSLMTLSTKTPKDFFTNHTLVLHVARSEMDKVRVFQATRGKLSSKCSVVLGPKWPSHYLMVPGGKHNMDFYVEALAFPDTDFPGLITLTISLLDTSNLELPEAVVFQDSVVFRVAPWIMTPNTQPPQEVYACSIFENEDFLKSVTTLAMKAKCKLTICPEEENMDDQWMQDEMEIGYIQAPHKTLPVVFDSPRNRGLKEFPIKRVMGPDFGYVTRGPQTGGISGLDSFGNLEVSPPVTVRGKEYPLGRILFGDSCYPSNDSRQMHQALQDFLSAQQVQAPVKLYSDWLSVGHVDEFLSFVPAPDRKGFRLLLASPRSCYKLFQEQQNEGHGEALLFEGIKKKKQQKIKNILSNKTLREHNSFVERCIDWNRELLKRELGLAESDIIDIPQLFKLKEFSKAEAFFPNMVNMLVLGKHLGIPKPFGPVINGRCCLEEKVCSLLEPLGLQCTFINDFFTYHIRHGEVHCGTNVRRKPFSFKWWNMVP

On to `N[C@H]1CN(C(=O)c2cc3cc(Cl)c(F)c(F)c3[nH]2)C[C@H]1F` [Example 7, ((3S,4R)-3-Amino-4-fluoro-pyrrolidin-1-yl)-(5-chloro-6,7-difluoro-1H-indol-2-yl)-methanone], for which the IC50 (usually the point on the concentration scale where inhibition reaches its midpoint) is 10 to 100 µM. Regarding `N[C@H]1CN(C(=O)c2cc3cc(Cl)c(F)c(F)c3[nH]2)C[C@@H]1O` [Example 22, ((3S,4S)-3-Amino-4-hydroxypyrrolidin-1-yl)(5-chloro-6,7-difluoro-1H-indol-2-yl)methanone], the half-maximal inhibitory concentration (IC50) is at most 1 µM. The same measure for `C[C@@H]1CNC[C@H]1NC(=O)c1cc2cc(Cl)c(F)c(F)c2[nH]1` [Example 13, 5-Chloro-6,7-difluoro-N-((3S,4R)-4-methylpyrrolidin-3-yl)-1H-indole-2-carboxamide]: 1 to 10 µM; for `NCC1(NC(=O)c2cc3cc(Cl)c(F)c(F)c3[nH]2)COC1` [Example 12, N-(3-(Aminomethyl)oxetan-3-yl)-5-chloro-6,7-difluoro-1H-indole-2-carboxamide]: 10 to 100 µM; for `C[C@@H]1NC[C@@H]1NC(=O)c1cc2cc(Cl)c(F)c(F)c2[nH]1` [Example 54, 5-chloro-6,7-difluoro-N-((2S,3S)-2-methylazetidin-3-yl)-1H-indole-2-carboxamide]: 1 to 10 µM. As for `N[C@H]1CN(C(=O)c2cc3cc(Cl)c(F)c(F)c3[nH]2)C[C@@H]1N` [Example 29, (5-Chloro-6,7-difluoro-1H-indol-2-yl)((3S,4S)-3,4-diaminopyrrolidin-1-yl)methanone], the figure is 1 to 10 µM; as for `N[C@@H]1CCN(C(=O)c2cc3cc(F)c(F)c(F)c3[nH]2)C1` [Example 3, (R)-(3-Aminopyrrolidin-1-yl)(5,6,7-trifluoro-1H-indol-2-yl)methanone], 1 to 10 µM; as for `CN(C(=O)c1cc2cc(Cl)c(F)c(F)c2[nH]1)[C@H]1CCNC1` [Example 51, (S)-5-chloro-6,7-difluoro-N-methyl-N-(pyrrolidin-3-yl)-1H-indole-2-carboxamide], 10 to 100 µM. The same measure for `N[C@@H]1CCN(C(=O)c2cc3cc(F)ccc3[nH]2)C1` [Example 49, (R)-(3-Aminopyrrolidin-1-yl)(5-fluoro-1H-indol-2-yl)methanone]: 10 to 100 µM. As to `CO[C@H]1CNC[C@@H]1NC(=O)c1cc2cc(Cl)c(F)c(F)c2[nH]1` [Example 33, 5-Chloro-6,7-difluoro-N-((3S,4S)-4-methoxypyrrolidin-3-yl)-1H-indole-2-carboxamide], the half-inhibitory concentration (IC50) lay in the range of 10 to 100 µM. With `C[C@H]1CNC[C@@H]1NC(=O)c1cc2cc(Cl)c(F)c(F)c2[nH]1` [Example 36, 5-Chloro-6,7-difluoro-N-((3R,4S)-4-methylpyrrolidin-3-yl)-1H-indole-2-carboxamide], the IC50 lay in the range of 1 to 10 µM.

Take `C[C@@H](CN)NC(=O)c1cc2cc(Cl)c(F)c(F)c2[nH]1` [Example 9, (S)-N-(1-Aminopropan-2-yl)-5-chloro-6,7-difluoro-1H-indole-2-carboxamide]: the IC50 was at most 1 µM.

In the case of `N[C@@H]1CCN(C(=O)c2cc3cc(Br)ccc3[nH]2)C1` [Example 48, (R)-(3-Aminopyrrolidin-1-yl)(5-bromo-1H-indol-2-yl)methanone], the IC50 lay within 1 to 10 µM.

As to `CO[C@H]1CN(C(=O)c2cc3cc(Cl)c(F)c(F)c3[nH]2)C[C@@H]1N` [Example 35, ((3S,4S)-3-Amino-4-methoxypyrrolidin-1-yl)(5-chloro-6,7-difluoro-1H-indol-2-yl)methanone], the IC50 was above 100 µM. The same measure for `O=C(c1cc2cc(Cl)c(F)c(F)c2[nH]1)N1CC2(CCNC2)C1` [Example 61, (5-chloro-6,7-difluoro-1H-indol-2-yl)(2,6-diazaspiro[3.4]octan-2-yl)methanone]: 10 to 100 µM. As for `C[C@@H]1CNC[C@@H]1NC(=O)c1cc2cc(Cl)c(F)c(F)c2[nH]1` [Example 20, 5-Chloro-6,7-difluoro-N-((3R,4R)-4-methylpyrrolidin-3-yl)-1H-indole-2-carboxamide], the figure is at most 1 µM; as for `O=C(N[C@H]1CCCNC1)c1cc2cc(Cl)c(F)c(F)c2[nH]1` [Example 39, (S)-5-Chloro-6,7-difluoro-N-(piperidin-3-yl)-1H-indole-2-carboxamide], 10 to 100 µM; as for `O=C(N[C@H]1CCNC1)c1cc2cc(Cl)c(F)c(F)c2[nH]1` [Example 26, (S)-5-Chloro-6,7-difluoro-N-(pyrrolidin-3-yl)-1H-indole-2-carboxamide], 1 to 10 µM. As for `O=C(N[C@@H]1CCCNC1)c1cc2cc(Cl)c(F)c(F)c2[nH]1` [Example 40, (R)-5-Chloro-6,7-difluoro-N-(piperidin-3-yl)-1H-indole-2-carboxamide], the figure is 10 to 100 µM; as for `O=C(N[C@@H]1CCNC1)c1cc2cc(Cl)c(F)c(F)c2[nH]1` [Example 25, (R)-5-Chloro-6,7-difluoro-N-(pyrrolidin-3-yl)-1H-indole-2-carboxamide], 10 to 100 µM; as for `O=C(NC1CNC1)c1cc2cc(Cl)c(F)c(F)c2[nH]1` [Example 23, N-(Azetidin-3-yl)-5-chloro-6,7-difluoro-1H-indole-2-carboxamide], at most 1 µM. Take `N[C@H]1CN(C(=O)c2cc3cc(Cl)c(F)c(F)c3[nH]2)CC[C@H]1F` [Example 43, ((3S,4R)-3-Amino-4-fluoropiperidin-1-yl)(5-chloro-6,7-difluoro-1H-indol-2-yl)methanone]: the IC50 was above 100 µM. The same measure for `CN(C(=O)c1cc2cc(Cl)c(F)c(F)c2[nH]1)C1CNC1` [Example 52, N-(azetidin-3-yl)-5-chloro-6,7-difluoro-N-methyl-1H-indole-2-carboxamide]: 10 to 100 µM; for `N[C@@H]1CCN(C(=O)c2cc3cc(F)c(Br)c(F)c3[nH]2)C1` [Example 6, (R)-(3-Aminopyrrolidin-1-yl)(6-bromo-5,7-difluoro-1H-indol-2-yl)methanone]: 10 to 100 µM. On to `N[C@@H]1CCN(C(=O)c2cc3cc(Cl)cc(Br)c3[nH]2)C1` [Example 47, (R)-(3-Aminopyrrolidin-1-yl)(7-bromo-5-chloro-1H-indol-2-yl)methanone], for which the IC50 is 10 to 100 µM. As to `N[C@H]1CN(C(=O)c2cc3cc(Br)c(F)c(F)c3[nH]2)C[C@@H]1O` [Example 65, ((3S,4S)-3-amino-4-hydroxypyrrolidin-1-yl)(5-bromo-6,7-difluoro-1H-indol-2-yl)methanone], the IC50 fell in the range of 1 to 10 µM. The same measure for `CC(C)C[C@@H](CN)NC(=O)c1cc2cc(Cl)c(F)c(F)c2[nH]1` [Example 19, (S)-N-(1-Amino-4-methylpentan-2-yl)-5-chloro-6,7-difluoro-1H-indole-2-carboxamide]: 10 to 100 µM.

Take `O=C(c1cc2cc(Cl)c(F)c(F)c2[nH]1)N1CC2(CNC2)C1` [Example 60, (5-chloro-6,7-difluoro-1H-indol-2-yl)(2,6-diazaspiro[3.3]heptan-2-yl)methanone]: the IC50 lay within 10 to 100 µM. The same measure for `CC(C)(C)[C@@H](CN)NC(=O)c1cc2cc(Cl)c(F)c(F)c2[nH]1` [Example 28, (S)-N-(1-Amino-3,3-dimethylbutan-2-yl)-5-chloro-6,7-difluoro-1H-indole-2-carboxamide]: 10 to 100 µM; for `C[C@H]1NC[C@H]1NC(=O)c1cc2cc(Cl)c(F)c(F)c2[nH]1` [Example 55, 5-chloro-6,7-difluoro-N-((2R,3R)-2-methylazetidin-3-yl)-1H-indole-2-carboxamide]: 1 to 10 µM. The same measure for `N[C@H]1CN(C(=O)c2cc3cc(I)c(F)c(F)c3[nH]2)C[C@@H]1O` [Example 66, ((3S,4S)-3-amino-4-hydroxypyrrolidin-1-yl)(6,7-difluoro-5-iodo-1H-indol-2-yl)methanone]: 1 to 10 µM. With `NCC(NC(=O)c1cc2cc(Cl)c(F)c(F)c2[nH]1)C1CC1` (stereo not shown) [Example 11, N-(2-Amino-1-cyclopropylethyl)-5-chloro-6,7-difluoro-1H-indole-2-carboxamide], the IC50 fell in the range of 10 to 100 µM. The same measure for `C[C@H]1CNC[C@H]1NC(=O)c1cc2cc(Cl)c(F)c(F)c2[nH]1` [Example 14, 5-Chloro-6,7-difluoro-N-((3S,4S)-4-methylpyrrolidin-3-yl)-1H-indole-2-carboxamide]: at most 1 µM. As for `CO[C@@H]1CNC[C@H]1NC(=O)c1cc2cc(Cl)c(F)c(F)c2[nH]1` [Example 34, 5-Chloro-6,7-difluoro-N-((3R,4R)-4-methoxypyrrolidin-3-yl)-1H-indole-2-carboxamide], the IC50 was in the range of 10 to 100 µM.

For `CC[C@@H](CN)NC(=O)c1cc2cc(Cl)c(F)c(F)c2[nH]1` [Example 10, (S)-N-(1-Aminobutan-2-yl)-5-chloro-6,7-difluoro-1H-indole-2-carboxamide], the half-maximal inhibitory concentration (IC50) was 1 to 10 µM. As for `O=C(c1cc2cc(Cl)c(F)c(F)c2[nH]1)N1C[C@H]2CNC[C@H]21` [Example 56, (1R,5S)-3,6-diazabicyclo[3.2.0]heptan-6-yl(5-chloro-6,7-difluoro-1H-indol-2-yl)methanone], the figure is 1 to 10 µM; as for `CC1(NC(=O)c2cc3cc(Cl)c(F)c(F)c3[nH]2)CNC1` [Example 53, 5-chloro-6,7-difluoro-N-(3-methylazetidin-3-yl)-1H-indole-2-carboxamide], 10 to 100 µM.
